Results taken from patent US20220332839A1, “USE OF PRG4 TO TREAT CANCER” (Lubris LLC, priority 2019, published 2022).

Legend:
[1] = system: lubricin (PRG4) mRNA; test: PRG4 mRNA expression in CAFs and ex vivo HCC specimens; assay type: cell-based, human; settings: 48 hours; CAFs (p<0.01) and HCC samples (p<0.05)
Procedure: RNA extraction and cDNA synthesis: […] of frozen ex-vivo treated HCC tissues were ground with a mortar-pestle in the presence of liquid nitrogen until a thin powder was obtained. The ground tissues were lysed with 0.5-1 ml of RLT buffer+1% (BME) and then processed according to the manufacturer's recommendations (RNeasy kit, Qiagen). […] The obtained RNA was assayed for quality and concentration using the NanoDrop 2000/2000c (Thermo Fisher Scientific). cDNA was synthetized using the High Capacity cDNA reverse transcription kit (Thermo Fisher Scientific), according to relative datasheet.
Real time PCR: One ng/μl of cDNA was used in total 20 μl reaction mix in the presence of 500 nM of each forward and reverse primer referred to a specific gene of interest, and 2×SYBR green master mix (Bio-Rad). The reaction was conducted in a CFX96 Touch Real-Time Detection System (Bio-Rad).
CAFs isolation: Immediately after surgical resection, HCC tumoral and peritumoral specimens were minced into 0.5-1 cm pieces and left in MACS Tissue Storage Solution (Miltenyi Biotec). The tissues were then further cut into smaller size pieces (1-2 mm), washed three times in Hanks balanced salt solution (HBSS), and then incubated in HBSS in the presence of type IV collagenase (Thermo Fisher Scientific) and 3 mM CaCl2 at 37° C. under gentle rotation for 4 hours. At the end of this step, the dissociation was mechanically facilitated by pipetting up-down the digested tissues with a large size orifice 50 ml pipette. The floating cells were collected and washed three times with HBSS and seeded in normal culture conditions in IMDM+20% FBS. The decanted, partially digested tissue specimens were subjected to a second round of digestion (as previously described). The resulting dissociated cells were washed with HBSS and cultured in IMDM+20% FBS. […] The presence of minimal contaminating non-fibroblastic cells (mostly cancerous hepatocytes, cholangiocytes and macrophages) was evaluated using antibodies to EpCAM, CD45, and CD11b.

[2] = system: HCC cells (HLE, HLF, PLC/DC/19, Hep3B, PLC/PRF/5); test: 72-hour proliferation assay, all HCC cells; assay type: cell-based, human
Procedure: (§1) Proliferation assay: In 100 μl complete medium, 3,000 cells were seeded in wells of a 96-well plate and left overnight to allow complete attachment. The next day (at time t=0 hours), the medium was removed and replaced with 100 μl of fresh medium in the presence/absence of Sorafenib (2.5 μM), Regorafenib (2.5 μM), rhPRG4 (12.5 to 100 μg/ml). Dimethyl sulfoxide (DMSO) and PBS+0.01% Tween-20 were used as vehicles of Sorafenib/Regorafenib, and rhPRG4, respectively. Cells in triplicate wells for each cell line were fixed at t=0 hours with 4% paraformaldehyde (PFA, pH 7.6, 10 min incubation), then stained with crystal violet (CV) and thoroughly washed to remove the excess staining. After 72 hours, the cells were fixed by adding 100 μl of 4% PFA directly to the medium (2% final PFA concentration, 20 min incubation), and processed for CV staining as previously described. Then, 100 or 200 μl of 1% sodium dodecyl-sulphate were added to the wells and the plates were left under shaking until complete CV release from stained cells. Optical density was at 595 nm wavelength measured using a plate reader.

[3] = system: HLE, HLF and PLC/DC/19 cells; test: 72-hour proliferation assay, CD44 positive HCC cells; assay type: cell-based, human; settings: drug 2.5 μM, rhPRG4 12.5 to 100 μg/ml
Procedure: as §1
Characterization of the primary HCC cells line PLC/DC/19: The primary HCC cell line, PLC/DC/19, was isolated from freshly collected surgically resected HCC specimen following the same isolation procedure to isolate CAFs. […]

[4] = system: non-metastatic triple negative breast cancer; test: Treatment of a human with triple negative breast cancer, local injection; assay type: in vivo
Procedure: (§2) A human diagnosed with non-metastatic triple negative breast cancer is administered recombinant human PRG4 (rhPRG4) by local injection to the area of the tumor. Administration is done under local anesthesia. A total amount of 2 mL of rhPRG4 in physiological saline at a concentration of 100 ug/mL is administered via a 14 gauge needle. Several injections are made into the tumor and over its surface in order to disperse the dose throughout the tumor area. The dose is administered once weekly for four weeks.
as §2, with “weeks. During the dosing rhPRG4 schedule, the patient also receives a cocktail of taxane and doxorubicin per standard protocols.” for “weeks.”

Substance	expression of lubricin mRNA [1]	cell proliferation, rhPRG4 alone [2]	effectiveness of Sorafenib or Regorafenib when coupled with rhPRG4 [3]	tumor size by CT scan after four weeks ([4]; 2 mL of 100 ug/mL rhPRG4, local injection, once weekly for four weeks)	tumor size by CT scan after four weeks, with taxane and doxorubicin ([4]; 2 mL of 100 ug/mL rhPRG4 locally weekly plus taxane and doxorubicin)
TGFβ: recombinant human mature transforming growth factor beta (R&D systems) [reference compound]	significantly enhanced the expression of lubricin				
rhPRG4: full-length recombinant human PRG4 (lubricin) glycoprotein produced by CHO-M cells; residues 25-1404 of SEQ ID NO:1		did not markedly impair the cell proliferation	strongly and synergistically improved their effectiveness	tumor has shrunk in size	shrunk in size and at a rate faster
